Test results from patent US20120040008A1, “PHARMACEUTICAL COMPOSITIONS OF METABOTROPIC GLUTAMATE 5 RECEPTOR (MGLU5) ANTAGONISTS” (priority 2010, published 2012).
In brackets after ≈: the same amount, converted by molar mass.

Key:
Format in all cases: physicochemical
[1] = BCS classification; details: because of pH dependent solubility in physiological range
[2] = aqueous solubility of the free base, pH-dependent; details: aqueous medium
[3] = log D at pH 7.4

In the case of `Cc1nc(C#Cc2ccnc(Cl)c2)c(C)n1-c1ccc(F)cc1` [2-Chloro-4-[1-(4-fluoro-phenyl)-2,5-dimethyl-1H-imidazol-4-ylethynyl]-pyridine], the BCS classification [1] was “BCS class 2”, the solubility ([2]; aqueous buffer, alkaline conditions, pH 7) was 0.3 µg/mL (≈ 0.000921 mM) and the solubility ([2]; simulated gastric fluid, acidic conditions, pH 1) was 3200 µg/mL (≈ 9.82 mM). For the same molecule, the logD [3] was over 3.
